As usually defined, the IC50 is the concentration that gives 50% inhibition.

From patent US12187721B2, “Protein tyrosine phosphatase inhibitors” (Array BioPharma Inc., priority 2018, dated 2025) come the findings set out here.

Read-outs that look alike come from different tables or passages of the source.

For this assay, the target named is T1, full-length SHP2 (His6-tagged SHP2(2-527)) (Homo sapiens, UniProt Q06124).
T1 construct: His6-tagged SHP2(2-527); His6; made in house; host or cells: E. coli
T1 sequence (Q06124 2-527): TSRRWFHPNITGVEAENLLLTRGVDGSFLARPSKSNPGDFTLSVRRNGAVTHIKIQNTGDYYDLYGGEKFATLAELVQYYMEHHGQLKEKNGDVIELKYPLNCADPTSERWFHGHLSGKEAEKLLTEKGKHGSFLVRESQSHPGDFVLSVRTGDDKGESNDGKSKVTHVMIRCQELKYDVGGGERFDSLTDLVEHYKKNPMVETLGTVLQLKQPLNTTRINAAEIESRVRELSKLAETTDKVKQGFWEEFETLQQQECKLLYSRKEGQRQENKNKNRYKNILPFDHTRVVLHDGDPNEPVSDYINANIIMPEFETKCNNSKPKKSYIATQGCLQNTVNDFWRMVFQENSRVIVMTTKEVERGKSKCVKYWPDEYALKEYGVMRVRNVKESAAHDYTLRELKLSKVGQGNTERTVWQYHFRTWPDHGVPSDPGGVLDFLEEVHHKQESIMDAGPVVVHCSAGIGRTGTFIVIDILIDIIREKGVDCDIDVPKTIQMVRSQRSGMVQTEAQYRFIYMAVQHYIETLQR
The experiment in a line: SHP2 Enzymatic Assay (fluorescence intensity kinetic assay, DiFMUP hydrolysis). It counts as biochemical. The method, then:
A fluorescence intensity kinetic assay was configured for full-length SHP2 that monitors the amount of 6,8-difluoro-7-hydroxy-4-methylcoumarin (“DiFMU”) formed upon hydrolysis of 6,8-difluoro-4-methylumbelliferyl phosphate (“DiFMUP”) by SHP2. Assay mixtures consisted of 25 mM K^+HEPES, pH 7.4, 0.01% Triton X-100, 1 mM DTT, 50 mM KCl, 100 μg/mL bovine γ-globulin, 50 μM DiFMUP, 1 μM SHP2 activating peptide (LN(pY)IDLDLV(dPEG8)LST(pY)ASINFQK-amide), 1 nM full-length SHP2 (His6-tagged SHP2(2-527), recombinantly expressed in E. coli and purified in-house) and 2% dimethylsulfoxide (“DMSO”) (from compound). […] The assay was run in 384-well, polystyrene, low-volume, non-treated, black microtiter plates (Costar 4511) in a final volume of 20 μL. Low control wells lacked enzyme. The assays were initiated by the addition of a mixture of SHP2 and the activating peptide, and following a 15 second mix on an orbital shaker, were read in kinetic mode for 15 minutes (30 seconds/cycle) at ambient temperature on a PerkinElmer EnVision microplate reader (λEx=355 nm, λEm=460 nm). Initial velocities (slopes of the tangents at t=0) were estimated from exponential fits to the slightly nonlinear progress curves and then were converted to percent of control (“POC”) using the following equation:
[formula] • Where: Xmax Average Uninhibited Controls • Xmin Average Background A 4-parameter logistic model was the fit to the POC data for each compound. From that fit, the IC50 was estimated and is defined as the concentration of compound at which the curve crosses 50 POC.
The reported IC50 in Table 1 may be from a single assay or the mean of multiple assays.

Where [1] appears, read: full-length SHP2 with 1 μM activating peptide, 50 μM DiFMUP, single assay or mean of multiple assays, read-out: Biological Example 1 IC50.

As for `CC1CCN(c2cnc3nc(Sc4ccnc(N)c4Cl)ccc3n2)CC1` [Example 143, 3-chloro-4-((2-(4-methylpiperidin-1-yl)pyrido[2,3-b]pyrazin-6-yl)thio)pyridin-2-amine], the IC50 was found to be 1760 nM.
With `CNC1(C)CCN(c2cnc3nc(Sc4ccnc(N)c4Cl)ccc3n2)CC1` [Example 31, 3-chloro-4-((2-(4-methyl-4-(methylamino)piperidin-1-yl)pyrido[2,3-b]pyrazin-6-yl)thio)pyridin-2-amine], the half-maximal inhibitory concentration (IC50) under setting [1] was 100 nM.
The compound `Nc1nccc(Sc2ccc3nc(N4C[C@@H]5C[C@H]4CN5)cnc3n2)c1Cl` [Example 203, 4-((2-((1S,4S)-2,5-diazabicyclo[2.2.1]heptan-2-yl)pyrido[2,3-b]pyrazin-6-yl)thio)-3-chloropyridin-2-amine] registered an IC50 of 142 nM.
Consider `C[C@@H]1OCC2(CCN(c3cnc4nc(Sc5ccnc(N6CC[C@@H](CO)C6)c5Cl)ccc4n3)CC2)[C@@H]1N` [Example 106, ((R)-1-(4-((2-((3S,4S)-4-amino-3-methyl-2-oxa-8-azaspiro[4.5]decan-8-yl)pyrido[2,3-b]pyrazin-6-yl)thio)-3-chloropyridin-2-yl)pyrrolidin-3-yl)methanol], for which the IC50 worked out at 101 nM.
On the same count and under the same terms, the figure for `C[C@@H]1OCC2(CCN(c3cnc4nc(N5CCCc6ncccc65)ccc4n3)CC2)[C@@H]1N` [Example 135, (3S,4S)-8-(6-(3,4-dihydro-1,5-naphthyridin-1(2H)-yl)pyrido[2,3-b]pyrazin-2-yl)-3-methyl-2-oxa-8-azaspiro[4.5]decan-4-amine] is 4030 nM; for `COc1cccc(Sc2ccc3nc(N4CCC(C)(N)CC4)cnc3n2)c1Cl` [Example 14, 1-(6-((2-chloro-3-methoxyphenyl)thio)pyrido[2,3-b]pyrazin-2-yl)-4-methylpiperidin-4-amine] it is 100 nM.
The compound `CC1(N)CCN(c2cnc3nc(Cc4cccc(Cl)c4Cl)ccc3n2)CC1` [Example 10, 1-(6-(2,3-dichlorobenzyl)pyrido[2,3-b]pyrazin-2-yl)-4-methylpiperidin-4-amine] displayed a half-inhibitory concentration (IC50) of 2000 nM.
`COc1ccc(-c2ccc3nc(N4CCC(C)(N)CC4)cnc3n2)c(Cl)c1Cl` [Example 30, 1-(6-(2,3-dichloro-4-methoxyphenyl)pyrido[2,3-b]pyrazin-2-yl)-4-methylpiperidin-4-amine] displayed an IC50 of 420 nM.
`CC1(N)CCN(c2cnc3nc(Sc4cccn5nccc45)ccc3n2)CC1` [Example 36, 4-methyl-1-(6-(pyrazolo[1,5-a]pyridin-4-ylthio)pyrido[2,3-b]pyrazin-2-yl)piperidin-4-amine]: the IC50 under setting [1] amounted to 400 nM.
As to `Cc1ccc2c(n1)CC1(CCN(c3cnc4nc(Sc5ccnc(N)c5Cl)ccc4n3)CC1)[C@H]2N` [Example 113, (R)-1′-(6-((2-amino-3-chloropyridin-4-yl)thio)pyrido[2,3-b]pyrazin-2-yl)-2-methyl-5,7-dihydrospiro[cyclopenta[b]pyridine-6,4′-piperidin]-5-amine], the midpoint of inhibition, the IC50, lay at 53 nM.
On the same count and under the same terms, the figure for `Nc1nccc(Sc2ccc3nc(N4CC5CCC(C4)N5)cnc3n2)c1Cl` [Example 201, 4-((2-(3,8-diazabicyclo[3.2.1]octan-3-yl)pyrido[2,3-b]pyrazin-6-yl)thio)-3-chloropyridin-2-amine] is 130 nM.
For `C[C@@]1(N)CCN(c2cnc3nc(-c4cccc(Cl)c4Cl)ccc3n2)C1` [Example 32, (R)-1-(6-(2,3-dichlorophenyl)pyrido[2,3-b]pyrazin-2-yl)-3-methylpyrrolidin-3-amine], the IC50 was found to be 420 nM.
On the same count and under the same terms, next, `CC1(N)CCN(c2ccc3nc(Sc4cccc(Cl)c4Cl)cnc3n2)CC1` [Example 7, 1-(2-((2,3-dichlorophenyl)thio)pyrido[2,3-b]pyrazin-6-yl)-4-methylpiperidin-4-amine]: 9500 nM; `Nc1nccc(Sc2ccc3nc(N4C[C@H]5C[C@H](N)[C@@H](C4)O5)cnc3n2)c1Cl` [Example 58, (1R,5R,6S)-3-(6-((2-amino-3-chloropyridin-4-yl)thio)pyrido[2,3-b]pyrazin-2-yl)-8-oxa-3-azabicyclo[3.2.1]octan-6-amine]: 153 nM.
The same measure, in the same setting: the figure for `COc1nccc(Sc2ccc3nc(N4CCC(C)(N)CC4)cnc3n2)c1Cl` [Example 20, 1-(6-((3-chloro-2-methoxypyridin-4-yl)thio)pyrido[2,3-b]pyrazin-2-yl)-4-methylpiperidin-4-amine] is 360 nM.
Same read-out and setting: the figure for `C[C@@H]1OCC2(CCN(c3cnc4nc(Sc5ccnc(C(F)(F)F)c5)ccc4n3)CC2)[C@@H]1N` [Example 190, (3S,4S)-3-methyl-8-(6-((2-(trifluoromethyl)pyridin-4-yl)thio)pyrido[2,3-b]pyrazin-2-yl)-2-oxa-8-azaspiro[4.5]decan-4-amine] is 3650 nM; for `Nc1nccc(Sc2ccc3nc(N4CCC5(CC4)Cc4ncc(F)cc4[C@@H]5N)cnc3n2)c1Cl` (single isomer, unassigned) [Example 118] it is 45 nM.
Turning to `C[C@@H]1OCC2(CCN(c3cnc4nc(Sc5cc(N)nc6[nH]ccc56)ccc4n3)CC2)[C@@H]1N` [Example 140, (3S,4S)-8-(6-((6-amino-1H-pyrrolo[2,3-b]pyridin-4-yl)thio)pyrido[2,3-b]pyrazin-2-yl)-3-methyl-2-oxa-8-azaspiro[4.5]decan-4-amine], the IC50 was found to be 75 nM.
Same read-out and setting: the figure for `CNc1nccc(Sc2ccc3nc(N4CCC[C@](C)(N)CC4)cnc3n2)c1Cl` (single isomer, unassigned) [Example 149] is 98 nM; for `CC1(N)CCN(c2cnc3nc(Sc4nccn5nccc45)ccc3n2)CC1` [Example 40, 4-methyl-1-(6-(pyrazolo[1,5-a]pyrazin-4-ylthio)pyrido[2,3-b]pyrazin-2-yl)piperidin-4-amine] it is 440 nM.
`C[C@@H]1OCC2(CCN(c3cnc4nc(Sc5ccnc(N6CCS(=O)(=O)CC6)c5Cl)ccc4n3)CC2)[C@@H]1N` [Example 77, 4-(4-((2-((3S,4S)-4-amino-3-methyl-2-oxa-8-azaspiro[4.5]decan-8-yl)pyrido[2,3-b]pyrazin-6-yl)thio)-3-chloropyridin-2-yl)thiomorpholine 1,1-dioxide]: the IC50 was found to be 344 nM.
On the same count and under the same terms, the figure for `COc1cccc(-c2ccc3nc(N4CCC(C)(N)CC4)cnc3n2)c1Cl` [Example 37, 1-(6-(2-chloro-3-methoxyphenyl)pyrido[2,3-b]pyrazin-2-yl)-4-methylpiperidin-4-amine] is 1100 nM; for `C[C@@H]1OCC2(CCN(c3cnc4nc(Sc5ccnc(Cl)c5Cl)ccc4n3)CC2)[C@@H]1N` [Example 177, (3S,4S)-8-(6-((2,3-dichloropyridin-4-yl)thio)pyrido[2,3-b]pyrazin-2-yl)-3-methyl-2-oxa-8-azaspiro[4.5]decan-4-amine] it is 220 nM.
The same measure, in the same setting: next, `Nc1nccc(Sc2ccc3nc(N4CCC[C@H](N)CC4)cnc3n2)c1Cl` [Example 51, (S)-1-(6-((2-amino-3-chloropyridin-4-yl)thio)pyrido[2,3-b]pyrazin-2-yl)azepan-4-amine]: 65 nM.
Regarding `Cc1ccc2c(n1)CC1(CCN(c3cnc4nc(Sc5ccnc(N)c5Cl)ccc4n3)CC1)[C@@H]2N` [Example 114, (S)-1′-(6-((2-amino-3-chloropyridin-4-yl)thio)pyrido[2,3-b]pyrazin-2-yl)-2-methyl-5,7-dihydrospiro[cyclopenta[b]pyridine-6,4′-piperidin]-5-amine], the IC50 under setting [1] is 40 nM.
